Earlier results in patent publication US7593820B2, “Crystal structure of human Janus Kinase 2 (JAK2) and uses thereof” (Cytopia Research Pty Ltd, priority 2005, dated 2009).

Tested on: other PTKs that possess either a Thr or Val
Settings: Thr or Val at gatekeeper position

SMILES: CC(C)(C)c1nc2c3cc[nH]c(=O)c3c3cc(F)ccc3c2[nH]1 [Compound 6, 2-tert-Butyl-9-fluoro-3,6-dihydro-7H-benz[h]imidazo[4,5-f]isoquinolin-7-one]
- IC50 for other PTKs that possess either a Thr or Val: uM range
